According to US20190008149A1, “HERBICIDAL COMPOSITIONS CONTAINING 4-AMINO-3-CHLORO-6-(4-CHLORO-2-FLUORO-3-METHOXYPHENYL) PYRIDINE-2-CARBOXYLIC ACID OR A DERIVATIVE THEREOF AND A CELL MEMBRANE DISRUPTOR HERBICIDE OR A DERIVATIVE THEREOF” (Dow AgroSciences LLC, priority 2015, published 2019):
Where “and” joins values, the source holds several entries; their conditions need not be identical. Equal entries are not always repeated.

Tested on: ERISS=Conyza species (fleabane, ERISS)
Experiment: Field trial, post-emergence foliar application, percent weed control visually rated
Type: in vivo
From the text: Treatments consisted of the methyl ester of 4-amino-3-chloro-6-(4-chloro-2-fluoro-3-methoxyphenyl)pyridine-2-carboxylic acid (Cmpd 1) tankmixed with saflufenacil or paraquat. The form of compound of formula (I) was applied on an acid equivalent basis, and saflufenacil and paraquat were applied on an active ingredient basis. Saflufenacil was applied as a commercial formulation containing 700 grams per kilogram (g/kg). Paraquat was applied as a commercial formulation containing 200 g/L.
Field trials were conducted under standard field conditions. Plot sizes varied from 2 meters (m) wide by 5 m long. Treatments were applied with small plot backpack sprayers, using pressurized carbon dioxide (CO2) as propellant. Pressure varied from 40-45 pounds per square inch (PSI), with spray tips typically of a Flat Fan type applying water diluent at 100 liters per hectare (L/ha). Boom size was 2 m in width. Weed sizes varied, but all treatments were applied as post-emergence treatments to weeds from 2 leaf to 2 tiller growth stages varying from 2-15 inches in height. No additional adjuvant was mixed with the treatments applied in the field.
Results in Tables 1 to 2 are field trial results for foliar applied compositions. The values reported are percent (%) control visually rated. The predicted percent (%) weed contol was determined using Colby's equation.
ERISS=Conyza species (fleabane, ERISS) g ae/ha=grams acid equivalent per hectare g ai/ha=grams active ingredient per hectare Mean % weed control=observed value of percent (%) control rated visually Predicted mean % weed control=expected value of percent (%) control as calculated by Colby's equation Cmpd 1=methyl 4-amino-3-chloro-6-(4-chloro-2-fluoro-3-methoxyphenyl)pyridine-2-carboxylate, halauxifen-methyl, or ARYLEX® DAA=days after application

Compound	Mean % weed control (Cmpd 1 alone, 5 g ae/ha, 17DAA)	Mean % weed control (Cmpd 1 alone, 5 g ae/ha, 28DAA)	Mean % weed control (Cmpd 1 alone, 5 g ae/ha, 43DAA)	Mean % weed control (Saflufenacil alone, 49 g ai/ha, 17DAA)	Mean % weed control (Saflufenacil alone, 49 g ai/ha, 28DAA)
COC(=O)c1nc(-c2ccc(Cl)c(OC)c2F)cc(N)c1Cl [Cmpd 1, methyl 4-amino-3-chloro-6-(4-chloro-2-fluoro-3-methoxyphenyl)pyridine-2-carboxylate]	33.75%	33.75% and 46.25%	40% and 57.5%	–	–
CC(C)N(C)S(=O)(=O)NC(=O)c1cc(-n2c(=O)cc(C(F)(F)F)n(C)c2=O)c(F)cc1Cl [Saflufenacil, 2-chloro-5-[3,6-dihydro-3-methyl-2,6-dioxo-4-(trifluoromethyl)-1(2H)-pyrimidinyl]-4-fluoro-N-[[methyl(1-methylethyl)amino]sulfonyl]benzamide, reference compound]	–	–	–	66.25%	66.25%
